Laboratory results: article PMC6370762, “Endogenous pore-forming protein complex targets acidic glycosphingolipids in lipid rafts to initiate endolysosome regulation” (Communications Biology, 2019)
Read-outs that look alike come from different tables or passages of the source.

Legend:
βγ-CAT [1] = molecular target: T1, βγ-CAT; settings: PBS pH 7.4, 37 °C; 1:1 global fit; gangliosides bind the BmALP1 subunit
T1 construct: gene BmALP1

BmTFF3 = BmTFF3 (Bombina maxima, UniProt B2BRT2); settings: PBS pH 7.4, 37 °C; 1:1 global fit; also bound on lipid overlay strips
Chain of BmTFF3 (B2BRT2 21-166 limits assumed): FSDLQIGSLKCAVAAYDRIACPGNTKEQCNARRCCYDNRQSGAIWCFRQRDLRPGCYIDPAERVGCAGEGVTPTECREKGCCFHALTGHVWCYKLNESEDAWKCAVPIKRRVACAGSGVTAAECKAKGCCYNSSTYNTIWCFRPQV

βγ-CAT [2] = molecular target: T1, βγ-CAT; settings: PBS pH 7.4, 37 °C; 1:1 global fit; site on BmTFF3 subunit

| Substance | Kd (βγ-CAT [1]) [nM] | Kd (BmTFF3) [nM] | Kd (βγ-CAT [2]) [nM] |
| --- | --- | --- | --- |
| GD3 | 46.7 | – | – |
| GT1b | 527 | – | – |
| GM1 | 30.5 | – | – |
| sulfatides | – | ~62.3 | 65.5 |
| GM3 | 10.2 | – | – |
| GM2 | 53.7 | – | – |
| GD1a | 76.3 | – | – |
| GD1b | 521 | – | – |
| GM4 | 46.3 | – | – |
